Laboratory results: the supplement of paper PMC10307832

Key:
Test in all cases: relative viability (nuclei count vs DMSO), 5 days (fraction); higher = more cells survive
NCI-H522 = system: NCI-H522
Summary of the method: (§1)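 Lung cancer cell lines were pin-tool dosed in 1536-well plates on the day after seeding, with either a lone drug or a fixed anchor-drug dose plus five library-drug doses (not always all listed) in √10 steps. Nuclei were counted on 4× images after 5 days. Relative viability is the ratio of treated-well to vehicle-well nuclei counts, with each value a median of duplicate plates.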

NCI-H1734 = system: NCI-H1734
Summary of the method: as §1

COR-L23 = system: COR-L23
Summary of the method: as §1

LU99A = system: LU99A
Summary of the method: as §1

NCI-H1648 = system: NCI-H1648
Summary of the method: as §1

NCI-H1944 = system: NCI-H1944
Summary of the method: as §1

BEN = system: BEN
Summary of the method: as §1

COR-L 105 = system: COR-L 105
Summary of the method: as §1

201T = system: 201T
Summary of the method: as §1

HARA = system: HARA
Summary of the method: as §1

NCI-H2342 = system: NCI-H2342
Summary of the method: as §1

EKVX = system: EKVX
Summary of the method: as §1

SK-LU-1 = system: SK-LU-1
Summary of the method: as §1

NCI-H1993 = system: NCI-H1993
Summary of the method: as §1

HCC-366 = system: HCC-366
Summary of the method: as §1

LXF-289 = system: LXF-289
Summary of the method: as §1

NCI-H596 = system: NCI-H596
Summary of the method: as §1

HCC-78 = system: HCC-78
Summary of the method: as §1

NCI-H1975 = system: NCI-H1975
Summary of the method: as §1

NCI-H1650 = system: NCI-H1650
Summary of the method: as §1

NCI-H3122 = system: NCI-H3122
Summary of the method: as §1

HCC-827 = system: HCC-827
Summary of the method: as §1

HCC-15 = system: HCC-15
Summary of the method: as §1

NCI-H1755 = system: NCI-H1755
Summary of the method: as §1

With `CCCCCCCCCCCC1=C(O)C(=O)C=C(O)C1=O` [Embelin] + O=C(CCCCCCC(=O)Nc1ccccc1)NO [Vorinostat] (partner 1 µM) the relative viability (NCI-H522; first compound 0.08 µM) was 0.876, the relative viability (NCI-H522; first compound 0.8 µM) was 0.906 and the relative viability (NCI-H522; first compound 2.53 µM) was 0.763. The relative viability (NCI-H522; first compound 8 µM) was 0.856, the relative viability (NCI-H1734; first compound 0.08 µM) was 0.868 and the relative viability (NCI-H1734; first compound 0.8 µM) was 0.968. The relative viability (NCI-H1734; first compound 2.53 µM) was 0.929, the relative viability (NCI-H1734; first compound 8 µM) was 0.749 and the relative viability (COR-L23; first compound 0.08 µM) was 0.404. It also gave a relative viability (COR-L23; first compound 0.8 µM) of 0.559, a relative viability (COR-L23; first compound 2.53 µM) of 0.386 and a relative viability (COR-L23; first compound 8 µM) of 0.492. It also gave a relative viability (LU99A; first compound 0.08 µM) of 0.56, a relative viability (LU99A; first compound 0.8 µM) of 0.461 and a relative viability (LU99A; first compound 2.53 µM) of 0.586. For the same molecule, the relative viability (LU99A; first compound 8 µM) was 0.336, the relative viability (NCI-H1648; first compound 0.08 µM) was 0.464 and the relative viability (NCI-H1648; first compound 0.8 µM) was 0.908. The relative viability (NCI-H1648; first compound 2.53 µM) was 0.487, the relative viability (NCI-H1648; first compound 8 µM) was 0.699 and the relative viability (NCI-H1944; first compound 0.08 µM) was 0.577. It also gave a relative viability (NCI-H1944; first compound 0.8 µM) of 0.643, a relative viability (NCI-H1944; first compound 2.53 µM) of 0.656 and a relative viability (NCI-H1944; first compound 8 µM) of 0.589. The relative viability (BEN; first compound 0.08 µM) was 0.57, the relative viability (BEN; first compound 0.8 µM) was 0.613 and the relative viability (BEN; first compound 2.53 µM) was 0.647. It also gave a relative viability (BEN; first compound 8 µM) of 0.515, a relative viability (COR-L 105; first compound 0.08 µM) of 0.867 and a relative viability (COR-L 105; first compound 0.8 µM) of 0.906. The relative viability (COR-L 105; first compound 2.53 µM) was 0.904, the relative viability (COR-L 105; first compound 8 µM) was 0.787 and the relative viability (201T; first compound 0.08 µM) was 0.993. For the same molecule, the relative viability (201T; first compound 0.8 µM) was 1.01, the relative viability (201T; first compound 2.53 µM) was 1.04 and the relative viability (201T; first compound 8 µM) was 0.851. The relative viability (HARA; first compound 0.08 µM) was 0.559, the relative viability (HARA; first compound 0.8 µM) was 0.603 and the relative viability (HARA; first compound 2.53 µM) was 0.545. The relative viability (HARA; first compound 8 µM) was 0.582, the relative viability (NCI-H2342; first compound 0.08 µM) was 0.766 and the relative viability (NCI-H2342; first compound 0.8 µM) was 0.828. For the same molecule, the relative viability (NCI-H2342; first compound 2.53 µM) was 0.887, the relative viability (NCI-H2342; first compound 8 µM) was 0.73 and the relative viability (EKVX; first compound 0.08 µM) was 0.744. It also gave a relative viability (EKVX; first compound 0.8 µM) of 0.962, a relative viability (EKVX; first compound 2.53 µM) of 0.832 and a relative viability (EKVX; first compound 8 µM) of 0.754. It also gave a relative viability (SK-LU-1; first compound 0.08 µM) of 0.892, a relative viability (SK-LU-1; first compound 0.8 µM) of 0.954 and a relative viability (SK-LU-1; first compound 2.53 µM) of 0.75. It also gave a relative viability (SK-LU-1; first compound 8 µM) of 0.518, a relative viability (NCI-H1993; first compound 0.08 µM) of 0.825 and a relative viability (NCI-H1993; first compound 0.8 µM) of 0.772. For the same molecule, the relative viability (NCI-H1993; first compound 2.53 µM) was 0.764, the relative viability (NCI-H1993; first compound 8 µM) was 0.646 and the relative viability (HCC-366; first compound 0.08 µM) was 0.409. The relative viability (HCC-366; first compound 0.8 µM) was 0.412, the relative viability (HCC-366; first compound 2.53 µM) was 0.364 and the relative viability (HCC-366; first compound 8 µM) was 0.268. It also gave a relative viability (LXF-289; first compound 0.08 µM) of 0.803, a relative viability (LXF-289; first compound 0.8 µM) of 0.742 and a relative viability (LXF-289; first compound 2.53 µM) of 0.715. It also gave a relative viability (LXF-289; first compound 8 µM) of 0.809, a relative viability (NCI-H596; first compound 0.08 µM) of 0.56 and a relative viability (NCI-H596; first compound 0.8 µM) of 0.73. The relative viability (NCI-H596; first compound 2.53 µM) was 0.667, the relative viability (NCI-H596; first compound 8 µM) was 0.495 and the relative viability (HCC-78; first compound 0.08 µM) was 0.467. The relative viability (HCC-78; first compound 0.8 µM) was 0.547, the relative viability (HCC-78; first compound 2.53 µM) was 0.553 and the relative viability (HCC-78; first compound 8 µM) was 0.401. The relative viability (NCI-H1975; first compound 0.08 µM) was 0.717, the relative viability (NCI-H1975; first compound 0.8 µM) was 0.741 and the relative viability (NCI-H1975; first compound 2.53 µM) was 0.75. For the same molecule, the relative viability (NCI-H1975; first compound 8 µM) was 0.729, the relative viability (NCI-H1650; first compound 0.08 µM) was 0.634 and the relative viability (NCI-H1650; first compound 0.8 µM) was 0.641. The relative viability (NCI-H1650; first compound 2.53 µM) was 0.543, the relative viability (NCI-H1650; first compound 8 µM) was 0.562 and the relative viability (NCI-H3122; first compound 0.08 µM) was 0.816. The relative viability (NCI-H3122; first compound 0.8 µM) was 0.999, the relative viability (NCI-H3122; first compound 2.53 µM) was 1.01 and the relative viability (NCI-H3122; first compound 8 µM) was 0.915. For the same molecule, the relative viability (HCC-827; first compound 0.08 µM) was 0.806, the relative viability (HCC-827; first compound 0.8 µM) was 0.915 and the relative viability (HCC-827; first compound 2.53 µM) was 0.966. For the same molecule, the relative viability (HCC-827; first compound 8 µM) was 0.917, the relative viability (HCC-15; first compound 0.08 µM) was 0.906 and the relative viability (HCC-15; first compound 0.8 µM) was 0.965. The relative viability (HCC-15; first compound 2.53 µM) was 0.908, the relative viability (HCC-15; first compound 8 µM) was 0.841 and the relative viability (NCI-H1755; first compound 0.08 µM) was 0.723. The relative viability (NCI-H1755; first compound 0.8 µM) was 0.813, the relative viability (NCI-H1755; first compound 2.53 µM) was 0.809 and the relative viability (NCI-H1755; first compound 8 µM) was 0.574.
